Patent publication US20160376605A1, “WHEAT PLANTS HAVING INCREASED TOLERANCE TO IMIDAZOLINONE HERBICIDES” (BASF SE, priority 2003, published 2016)

What was measured:
Durum line UT12 = assay: Greenhouse Trial: plant injury rating, imazamox; format: in vivo, Durum wheat; conditions: 0-9 scale, 0 = no injury, 9 = plant death
Procedure: (§1) Fifteen Durum lines, each derived from a different M2 plant, and two wild type durum lines were evaluated for tolerance to the imidazolinone herbicide imazamox at rates of 100 and 160 g/ha in a greenhouse trial. Evaluations of tolerance were made at 14 and 21 days after treatment. Injury was scored on a 0-9 scale, with 0 representing no injury and 9 plant death.

Durum line UTO8 = assay: Greenhouse Trial: plant injury rating, imazamox; format: in vivo, Durum wheat; conditions: 0-9 scale, 0 = no injury, 9 = plant death
Procedure: as §1

Durum line UT16 = assay: Greenhouse Trial: plant injury rating, imazamox; format: in vivo, Durum wheat; conditions: 0-9 scale, 0 = no injury, 9 = plant death
Procedure: as §1

Durum line UTO7 = assay: Greenhouse Trial: plant injury rating, imazamox; format: in vivo, Durum wheat; conditions: 0-9 scale, 0 = no injury, 9 = plant death
Procedure: as §1

Durum line UT17 = assay: Greenhouse Trial: plant injury rating, imazamox; format: in vivo, Durum wheat; conditions: 0-9 scale, 0 = no injury, 9 = plant death
Procedure: as §1

Durum line UT10 = assay: Greenhouse Trial: plant injury rating, imazamox; format: in vivo, Durum wheat; conditions: 0-9 scale, 0 = no injury, 9 = plant death
Procedure: as §1

Durum line UTO3 = assay: Greenhouse Trial: plant injury rating, imazamox; format: in vivo, Durum wheat; conditions: 0-9 scale, 0 = no injury, 9 = plant death
Procedure: as §1

Durum line UT20 = assay: Greenhouse Trial: plant injury rating, imazamox; format: in vivo, Durum wheat; conditions: 0-9 scale, 0 = no injury, 9 = plant death
Procedure: as §1

Durum line C119 = assay: Greenhouse Trial: plant injury rating, imazamox; format: in vivo, Durum wheat; conditions: 0-9 scale, 0 = no injury, 9 = plant death
Procedure: as §1

Durum line UT13 = assay: Greenhouse Trial: plant injury rating, imazamox; format: in vivo, Durum wheat; conditions: 0-9 scale, 0 = no injury, 9 = plant death
Procedure: as §1

Durum line UT19 = assay: Greenhouse Trial: plant injury rating, imazamox; format: in vivo, Durum wheat; conditions: 0-9 scale, 0 = no injury, 9 = plant death
Procedure: as §1

[1] = system: Wild Type Line UT (durum); assay: Greenhouse Trial: plant injury rating, imazamox; format: in vivo, Durum wheat; conditions: for Average plant injury rating: Wild Type Line UT, 0-9 scale, 0 = no injury, 9 = plant death
Procedure: as §1

[2] = system: Durum wheat M3:4 lines derived from M2 plant UT19; assay: Field Trials (2): tolerance scores at two rates of imazamox; format: in vivo; conditions: UT19, range across M3:4 lines
From the text: (§2) One hundred ten M3:4 lines derived from sixteen M2 plants were screened at 71 g/ha and 160 g/ha imazamox. The number of M4 lines per M2 plant varied from one to twenty. Tolerance of M3:4 lines was compared to untreated plots of the same line as well as to treated plots of a wild-type cultivar from which some of them were derived.
(§3) All tested lines survived at both rates of herbicide treatment, whereas all plants of the wild type were killed at both rates. Based on comparison to the wild type line, all lines tested expressed considerable tolerance to the applied rates, particularly when looking at height reduction relative to untreated plots. A rate of 35 g/ha imazamox is adequate to kill susceptible durum wheat.

[3] = system: Durum wheat M3:4 lines derived from M2 plant UT15; assay: as above; format: in vivo; conditions: UT15, range across M3:4 lines
From the text: as §2, §3

[4] = system: Durum wheat M3:4 lines derived from M2 plant UT03; assay: as above; format: in vivo; conditions: UT03, range across M3:4 lines
From the text: as §2, §3

[5] = system: Durum wheat M3:4 lines derived from M2 plant UT05; assay: as above; format: in vivo; conditions: UT05, range across M3:4 lines
From the text: as §2, §3

[6] = system: Durum wheat M3:4 lines derived from M2 plant UT08; assay: as above; format: in vivo; conditions: UT08, range across M3:4 lines
From the text: as §2, §3

[7] = system: One hundred ten M3:4 durum lines derived from sixteen M2 plants; assay: Field Trials (2): all tested M3:4 lines; format: in vivo, Durum wheat
From the text: as §2, §3

Compound: COCc1cnc(C2=NC(C)(C(C)C)C(=O)N2)c(C(=O)O)c1 (stereo not drawn) [imazamox]
- Average plant injury rating (Durum line UT12; imazamox 100 g/ha, 14 DAT): 4.8
- Average plant injury rating (Durum line UT12; imazamox 100 g/ha, 21 DAT): 2.1
- Average plant injury rating (Durum line UT12; imazamox 160 g/ha, 14 DAT): 5.7
- Average plant injury rating (Durum line UT12; imazamox 160 g/ha, 21 DAT): 2.8
- Average plant injury rating (Durum line UTO8; imazamox 100 g/ha, 14 DAT): 4.5
- Average plant injury rating (Durum line UTO8; imazamox 100 g/ha, 21 DAT): 1.9
- Average plant injury rating (Durum line UTO8; imazamox 160 g/ha, 14 DAT): 5.5
- Average plant injury rating (Durum line UTO8; imazamox 160 g/ha, 21 DAT): 3.0
- Average plant injury rating (Durum line UT16; imazamox 100 g/ha, 14 DAT): 5.4
- Average plant injury rating (Durum line UT16; imazamox 100 g/ha, 21 DAT): 2.0
- Average plant injury rating (Durum line UT16; imazamox 160 g/ha, 14 DAT): 4.9
- Average plant injury rating (Durum line UT16; imazamox 160 g/ha, 21 DAT): 2.8
- Average plant injury rating (Durum line UTO7; imazamox 100 g/ha, 14 DAT): 3.7
- Average plant injury rating (Durum line UTO7; imazamox 100 g/ha, 21 DAT): 1.9
- Average plant injury rating (Durum line UTO7; imazamox 160 g/ha, 14 DAT): 4.4
- Average plant injury rating (Durum line UTO7; imazamox 160 g/ha, 21 DAT): 2.5
- Average plant injury rating (Durum line UT17; imazamox 100 g/ha, 14 DAT): 4.1
- Average plant injury rating (Durum line UT17; imazamox 100 g/ha, 21 DAT): 2.5
- Average plant injury rating (Durum line UT17; imazamox 160 g/ha, 14 DAT): 4.7
- Average plant injury rating (Durum line UT17; imazamox 160 g/ha, 21 DAT): 3.1
- Average plant injury rating (Durum line UT10; imazamox 100 g/ha, 14 DAT): 5.8
- Average plant injury rating (Durum line UT10; imazamox 100 g/ha, 21 DAT): 4.3
- Average plant injury rating (Durum line UT10; imazamox 160 g/ha, 14 DAT): 6.5
- Average plant injury rating (Durum line UT10; imazamox 160 g/ha, 21 DAT): 5.1
- Average plant injury rating (Durum line UTO3; imazamox 100 g/ha, 14 DAT): 4.8
- Average plant injury rating (Durum line UTO3; imazamox 100 g/ha, 21 DAT): 2.2
- Average plant injury rating (Durum line UTO3; imazamox 160 g/ha, 14 DAT): 5.2
- Average plant injury rating (Durum line UTO3; imazamox 160 g/ha, 21 DAT): 2.8
- Average plant injury rating (Durum line UT20; imazamox 100 g/ha, 14 DAT): 5.0
- Average plant injury rating (Durum line UT20; imazamox 100 g/ha, 21 DAT): 2.1
- Average plant injury rating (Durum line UT20; imazamox 160 g/ha, 14 DAT): 5.3
- Average plant injury rating (Durum line UT20; imazamox 160 g/ha, 21 DAT): 2.5
- Average plant injury rating (Durum line C119; imazamox 100 g/ha, 14 DAT): 4.8
- Average plant injury rating (Durum line C119; imazamox 100 g/ha, 21 DAT): 1.0
- Average plant injury rating (Durum line C119; imazamox 160 g/ha, 14 DAT): 4.9
- Average plant injury rating (Durum line C119; imazamox 160 g/ha, 21 DAT): 1.4
- Average plant injury rating (Durum line UT13; imazamox 100 g/ha, 14 DAT): 4.7
- Average plant injury rating (Durum line UT13; imazamox 100 g/ha, 21 DAT): 2.3
- Average plant injury rating (Durum line UT13; imazamox 160 g/ha, 14 DAT): 5.8
- Average plant injury rating (Durum line UT13; imazamox 160 g/ha, 21 DAT): 3.4
- Average plant injury rating (Durum line UT19; imazamox 100 g/ha, 14 DAT): 3.3
- Average plant injury rating (Durum line UT19; imazamox 100 g/ha, 21 DAT): 1.1
- Average plant injury rating (Durum line UT19; imazamox 160 g/ha, 14 DAT): 3.6
- Average plant injury rating (Durum line UT19; imazamox 160 g/ha, 21 DAT): 1.7
- Average plant injury rating ([1]; imazamox 100 g/ha, 14 DAT): 8.9
- Average plant injury rating ([1]; imazamox 100 g/ha, 21 DAT): 9.0
- Average plant injury rating ([1]; imazamox 160 g/ha, 14 DAT): 9.0
- Average plant injury rating ([1]; imazamox 160 g/ha, 21 DAT): 9.0
- survival of wild type plants ([1]; imazamox 100 and 160 g/ha, by 21 days after treatment): killed
- % Chlorosis ([2]; imazamox 71 g/ha, 14 DAT): 30-40%
- % Height Reduction ([2]; imazamox 71 g/ha, 14 DAT): 0-10%
- % Chlorosis ([2]; imazamox 71 g/ha, 30 DAT): 0%
- % Height Reduction ([2]; imazamox 71 g/ha, 30 DAT): 5-20%
- % Chlorosis ([2]; imazamox 160 g/ha, 14 DAT): 40%
- % Height Reduction ([2]; imazamox 160 g/ha, 14 DAT): 0-10%
- % Chlorosis ([2]; imazamox 160 g/ha, 30 DAT): 0-5%
- % Height Reduction ([2]; imazamox 160 g/ha, 30 DAT): 10-20%
- % Chlorosis ([3]; imazamox 71 g/ha, 14 DAT): 30-70%
- % Height Reduction ([3]; imazamox 71 g/ha, 14 DAT): 0-10%
- % Chlorosis ([3]; imazamox 71 g/ha, 30 DAT): 0-10%
- % Height Reduction ([3]; imazamox 71 g/ha, 30 DAT): 5-20%
- % Chlorosis ([3]; imazamox 160 g/ha, 14 DAT): 30-70%
- % Height Reduction ([3]; imazamox 160 g/ha, 14 DAT): 0-10%
- % Chlorosis ([3]; imazamox 160 g/ha, 30 DAT): 0-15%
- % Height Reduction ([3]; imazamox 160 g/ha, 30 DAT): 5-30%
- % Chlorosis ([4]; imazamox 71 g/ha, 14 DAT): 0%
- % Height Reduction ([4]; imazamox 71 g/ha, 14 DAT): 10%
- % Chlorosis ([4]; imazamox 71 g/ha, 30 DAT): 5%
- % Height Reduction ([4]; imazamox 71 g/ha, 30 DAT): 5%
- % Chlorosis ([4]; imazamox 160 g/ha, 14 DAT): 5%
- % Height Reduction ([4]; imazamox 160 g/ha, 14 DAT): 10%
- % Chlorosis ([4]; imazamox 160 g/ha, 30 DAT): 5%
- % Height Reduction ([4]; imazamox 160 g/ha, 30 DAT): 5%
- % Chlorosis ([5]; imazamox 71 g/ha, 14 DAT): 5-10%
- % Height Reduction ([5]; imazamox 71 g/ha, 14 DAT): 5-10%
- % Chlorosis ([5]; imazamox 71 g/ha, 30 DAT): 5-10%
- % Height Reduction ([5]; imazamox 71 g/ha, 30 DAT): 5-10%
- % Chlorosis ([5]; imazamox 160 g/ha, 14 DAT): 5-15%
- % Height Reduction ([5]; imazamox 160 g/ha, 14 DAT): 10-30%
- % Chlorosis ([5]; imazamox 160 g/ha, 30 DAT): 5-20%
- % Height Reduction ([5]; imazamox 160 g/ha, 30 DAT): 5-20%
- % Chlorosis ([6]; imazamox 71 g/ha, 14 DAT): 0-10%
- % Height Reduction ([6]; imazamox 71 g/ha, 14 DAT): 0-10%
- % Chlorosis ([6]; imazamox 71 g/ha, 30 DAT): 0-10%
- % Height Reduction ([6]; imazamox 71 g/ha, 30 DAT): 0-10%
- % Chlorosis ([6]; imazamox 160 g/ha, 14 DAT): 0-10%
- % Height Reduction ([6]; imazamox 160 g/ha, 14 DAT): 0-10%
- % Chlorosis ([6]; imazamox 160 g/ha, 30 DAT): 0-15%
- survival of tested lines ([7]; imazamox 71 g/ha and 160 g/ha (both rates), all tested M3:4 lines): survived
- tolerated rate relative to the 35 g/ha rate that kills susceptible durum wheat ([7]; lines evaluated at 71 and 160 g/ha imazamox): almost 3 times to over 4 times
